According to article PMC3621832, “Non-Complexed Four Cascade Enzyme Mixture: Simple Purification and Synergetic Co-stabilization” (PLoS ONE, 2013):

Tests used:
Type in all cases: biochemical
[1] = target: T1, fructose bisphosphate aldolase (ALD) (Thermotoga maritima, UniProt Q9WYB0); assay: coupled cascade with TIM, FBP and PGI; G6P by enzymatic glucose reagent
T1 construct: gene TM_0273; heat and ammonium sulfate purification
T1 sequence (Q9WYB0 1-315): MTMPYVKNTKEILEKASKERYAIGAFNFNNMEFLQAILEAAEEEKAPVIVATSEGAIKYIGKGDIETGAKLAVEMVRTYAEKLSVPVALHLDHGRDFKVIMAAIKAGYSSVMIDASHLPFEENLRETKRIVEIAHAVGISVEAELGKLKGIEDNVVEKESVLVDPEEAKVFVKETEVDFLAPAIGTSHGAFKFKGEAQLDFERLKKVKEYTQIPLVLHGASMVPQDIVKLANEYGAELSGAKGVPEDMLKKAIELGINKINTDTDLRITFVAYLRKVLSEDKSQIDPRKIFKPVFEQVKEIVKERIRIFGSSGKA

[2] = target: T2, fructose bisphosphatase (FBP) (Thermotoga maritima, UniProt O33832); assay: FBP activity assay as described elsewhere; also in four-enzyme cascade
T2 construct: gene suhB; recombinant, E. coli, plasmid pCIF (CBM-intein-FBP), tag-free after intein self-cleavage
T2 sequence (O33832 1-256): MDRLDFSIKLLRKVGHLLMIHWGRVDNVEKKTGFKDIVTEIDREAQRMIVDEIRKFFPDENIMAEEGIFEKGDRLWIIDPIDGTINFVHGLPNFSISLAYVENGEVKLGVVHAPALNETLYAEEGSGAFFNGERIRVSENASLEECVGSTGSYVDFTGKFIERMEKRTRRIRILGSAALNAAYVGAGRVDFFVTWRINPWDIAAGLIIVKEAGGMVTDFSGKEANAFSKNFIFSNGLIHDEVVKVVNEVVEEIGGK

[3] = target: T3, phosphoglucose isomerase (PGI) (Acetivibrio thermocellus, UniProt A3DBX9); assay: G6P formation by enzymatic glucose kit; details: 100 mM HEPES pH 7.5, 10 mM MgCl2, 0.5 mM MnCl2, 60°C
T3 construct: recombinant, E. coli, plasmid pCIP (CBM-intein-PGI), tag-free after intein self-cleavage
T3 sequence (A3DBX9 1-448): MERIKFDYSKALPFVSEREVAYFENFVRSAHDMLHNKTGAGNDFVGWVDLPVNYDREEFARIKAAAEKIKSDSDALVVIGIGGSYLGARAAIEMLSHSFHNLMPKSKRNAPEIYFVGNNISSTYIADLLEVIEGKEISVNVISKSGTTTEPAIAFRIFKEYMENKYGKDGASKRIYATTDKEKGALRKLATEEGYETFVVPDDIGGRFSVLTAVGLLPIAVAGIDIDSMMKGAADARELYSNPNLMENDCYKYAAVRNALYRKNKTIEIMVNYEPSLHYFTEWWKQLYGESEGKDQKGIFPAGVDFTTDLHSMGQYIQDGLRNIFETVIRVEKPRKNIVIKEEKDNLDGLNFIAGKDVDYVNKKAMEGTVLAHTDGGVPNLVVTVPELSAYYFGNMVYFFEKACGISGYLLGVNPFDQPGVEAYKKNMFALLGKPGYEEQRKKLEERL

Compound: O=C(CO)COP(=O)(O)O [dihydroxyacetone phosphate]
- coupled cascade with TIM, FBP and PGI; G6P by enzymatic glucose reagent ([1]; co-substrate G3P): G3P and DHAP were substrates and F16P was the product

Compound: O=P(O)(O)OC[C@H]1OC(O)(COP(=O)(O)O)[C@@H](O)[C@@H]1O (stereo partly shown) [fructose 1,6-bisphosphate]
- FBP activity assay as described elsewhere; also in four-enzyme cascade [2]: FBP catalyses the irreversible conversion of F16P to fructose 6-phosphate (F6P)

Compound: O=P(O)(O)OC[C@H]1OC(O)(CO)[C@@H](O)[C@@H]1O (stereo partly shown) [fructose 6-phosphate]
- G6P formation by enzymatic glucose kit [3]: PGI reversibly converts fructose-6-phosphate (F6P) and glucose-6-phosphate (G6P)

Compound: O=C[C@H](O)COP(=O)(O)O [glyceraldehyde-3-phosphate]
- coupled cascade with TIM, FBP and PGI; G6P by enzymatic glucose reagent ([1]; co-substrate DHAP): G3P and DHAP were substrates and F16P was the product
